molecular target: T1, pSTAT3 (pY705-STAT3) (Homo sapiens, UniProt P40763); test: MSD-pSTAT-PBMC Assay (pSTAT3, IL-6 stimulated); type: cell-based; settings: not given
T1 construct: host or cells: cryopreserved PBMC
Outline: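 Human PBMCs (50,000 cells/well for STAT3, 25,000 for STAT6) treated with compound 3 h, then stimulated 10 min with 10 ng/mL IL-6 or 1 ng/mL IL-4. Lysate pSTAT3 (pY705) or pSTAT6 (pY641) measured by MSD sandwich electrochemiluminescence. Signal minus unstimulated, normalized to DMSO; IC50 by variable-slope nonlinear regression.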

T1 sequence (P40763 whole entry): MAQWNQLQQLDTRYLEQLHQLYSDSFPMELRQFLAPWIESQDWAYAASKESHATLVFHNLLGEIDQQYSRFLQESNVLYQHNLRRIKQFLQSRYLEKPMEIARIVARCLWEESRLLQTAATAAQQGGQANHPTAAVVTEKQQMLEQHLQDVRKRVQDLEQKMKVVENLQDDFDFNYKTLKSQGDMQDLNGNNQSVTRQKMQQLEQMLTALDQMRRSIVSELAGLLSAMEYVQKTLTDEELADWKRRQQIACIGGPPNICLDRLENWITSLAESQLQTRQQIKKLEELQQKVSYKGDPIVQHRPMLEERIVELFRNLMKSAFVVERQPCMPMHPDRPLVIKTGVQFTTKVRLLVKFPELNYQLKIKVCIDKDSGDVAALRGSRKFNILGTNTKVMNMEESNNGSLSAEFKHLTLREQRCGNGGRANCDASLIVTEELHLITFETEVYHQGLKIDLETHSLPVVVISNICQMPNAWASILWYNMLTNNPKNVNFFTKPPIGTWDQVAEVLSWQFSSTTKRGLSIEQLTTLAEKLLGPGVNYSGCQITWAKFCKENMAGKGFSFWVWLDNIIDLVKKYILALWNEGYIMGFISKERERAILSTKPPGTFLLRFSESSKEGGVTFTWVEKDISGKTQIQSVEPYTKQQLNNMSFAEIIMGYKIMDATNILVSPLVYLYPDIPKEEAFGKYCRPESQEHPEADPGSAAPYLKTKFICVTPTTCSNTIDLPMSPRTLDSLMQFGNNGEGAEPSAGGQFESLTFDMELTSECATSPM

SMILES	IC50 [nM]
CCCOC(=O)[C@H](C)NP(=O)(Oc1ccccc1)C(F)c1ccc2sc(C(=O)N[C@H]3C[C@@H]4C[C@@H]4C[C@H]4CC[C@@H](C(=O)N5CC(c6cnccc6OCC)C5)N4C3=O)cc2c1 (stereo partly drawn) [Compound 423, propyl(((S)-(2-(((3S,6S,7aS,8aR,9aR)-3-(3-(4-ethoxypyridin-3-yl)azetidine-1-carbonyl)-5-oxodecahydro-1H-cyclopropa[d]pyrrolo[1,2-a]azocin-6-yl)carbamoyl)benzo[b]thiophen-5-yl)fluoromethyl)(phenoxy)phosphoryl)-L-alaninate]	< 100
CCCOC(=O)[C@H](C)NP(=O)(Oc1ccccc1)C(F)c1ccc2sc(C(=O)N[C@H]3C[C@H]4C[C@H]4C[C@H]4CC[C@@H](C(=O)N5CC(c6cnccc6N6CCOCC6)C5)N4C3=O)cc2c1 (stereo in doubt) [Compound 409, propyl(((R)-fluoro(2-(((3S,6S,7aS,8aR,9aR)-3-(3-(4-morpholinopyridin-3-yl)azetidine-1-carbonyl)-5-oxodecahydro-1H-cyclopropa[d]pyrrolo[1,2-a]azocin-6-yl)carbamoyl)benzo[b]thiophen-5-yl)methyl)(phenoxy)phosphoryl)-L-alaninate]	< 100
CCCOC(=O)[C@H](C)NP(=O)(Cc1ccc2sc(C(=O)N[C@H]3C[C@H]4C[C@H]4C[C@H]4CC[C@@H](C(=O)N5CC(c6cnccc6F)C5)N4C3=O)cc2c1)Oc1ccccc1 (stereo partly drawn) [Compound 251, propyl(((2-(((3S,6S,7aR,8aS,9aR)-3-(3-(4-fluoropyridin-3-yl)azetidine-1-carbonyl)-5-oxodecahydro-1H-cyclopropa[d]pyrrolo[1,2-a]azocin-6-yl)carbamoyl)benzo[b]thiophen-5-yl)methyl)(phenoxy)phosphoryl)-L-alaninate]	< 100

same assay, conditions: PBMC, compound 3 hrs, then 10 ng/mL IL-6 for 10 min; MSD pY705-STAT3; read-out: pSTAT3

SMILES	IC50 [nM]
CCCOC(=O)[C@H](C)NP(=O)(Cc1ccc2sc(C(=O)N[C@H]3C[C@@H]4C[C@@H]4C[C@H]4CC[C@@H](C(=O)N5CC(C(=O)N6CCOCC6)C5)N4C3=O)cc2c1)Oc1ccccc1 (stereo partly drawn) [Compound 217, propyl (((2-(((3S,6S,7aS, 8aR,9aR)-3-(3-(morpholine-4-carbonyl)azetidine-1-carbonyl)-5-oxodecahydro-1H-cyclopropa[d]pyrrolo[1,2-a]azocin-6-yl)carbamoyl)benzo[b]thiophen-5-yl)methyl) (phenoxy)phosphoryl)-L-alaninate]	100 to 1000
CCCOC(=O)[C@H](C)N[P@@](=O)(Oc1ccccc1)[C@H](F)c1ccc2sc(C(=O)N[C@H]3C[C@H]4C[C@H]4C[C@H]4CC[C@@H](C(=O)N5CC(c6cnccc6N(C)C)C5)N4C3=O)cc2c1 [Compound 399]	< 100
CCCOC(=O)[C@H](C)NP(=O)(Oc1ccccc1)C(F)c1ccc2sc(C(=O)N[C@H]3C[C@@H]4C[C@@H]4C[C@H]4CC[C@@H](C(=O)N5CC(c6ncco6)C5)N4C3=O)cc2c1 (stereo partly drawn) [Compound 323, propyl ((fluoro(2-(((3S,6S,7aS,8aR,9aR)-3-(3-(oxazol-2-yl)azetidine-1-carbonyl)-5-oxodecahydro-1H-cyclopropa[d]pyrrolo[1,2-a]azocin-6-yl)carbmaoyl)benzo[b]thiophen-5-yl)methyl)(phenoxy)phosphoryl)-L-alaninate]	< 100
CCCOC(=O)[C@H](C)NP(=O)(Oc1ccccc1)C(F)c1ccc2sc(C(=O)N[C@H]3C[C@H]4C[C@H]4C[C@H]4CC[C@@H](C(=O)N5CC(c6nncn6C)C5)N4C3=O)cc2c1 (stereo partly drawn) [Compound 332, propyl ((fluoro(2-(((3S,6S,7aR,8aS,9aR)-3-(3-(4-methyl-4H-1,2,4-triazol-3-yl)azetidine-1-carbonyl)-5-oxodecahydro-1H-cyclopropa[d]pyrrolo[1,2-a]azocin-6-yl)carbamoyl)benzo[b]thiophen-5-yl)methyl)(phenoxy)phosphoryl)-L-alaninate]	> 3000

From patent US20250215030A1, “STAT MODULATORS AND USES THEREOF” (Recludix Pharma, Inc., priority 2022, published 2025)
